From paper PMC11719397, “Monophthalates of betulinic acid and related pentacyclic triterpenes inhibit efficiently the SOS-mediated nucleotide exchange and impact PI3K/AKT signaling in oncogenic K-RAS4B proteins” (RSC Advances, 2025) come the findings set out here.

In brackets after ≈: the same amount, converted by molar mass. Read-outs that look alike come from different tables or passages of the source.

One data set concerns the target K-RAS4B^G12D (Homo sapiens, UniProt P01116, G12D). Description: biochemical. Conditions: for IC50: K-RAS4B GDP/GTP exchange, eight data points, at least three determinations.
The target of another data set is K-RAS4B wild-type (Homo sapiens, UniProt P01116). In words: Nucleotide exchange assay (SOS1-mediated GDP/GTP exchange, GDP-Glo), K-RAS4B wild-type. The note with it: K-RAS4B GDP/GTP exchange; eight data points, at least three determinations; (*) single determination. The format is biochemical.
In a further data set the target is K-RAS4B G12V (Homo sapiens, UniProt P01116, G12V). In words: Nucleotide exchange assay (SOS1-mediated GDP/GTP exchange, GDP-Glo), K-RAS4B G12V. The format is biochemical. The note with it: eight data points, at least three determinations, (*) single determination.
The mark [1] stands for this setting: K-RAS4B form mostly not given, inactive = IC50 > 100 μM (Fig. 3 legend).

Consider `CC1(C)CC[C@]2(C(=O)O)CC[C@]3(C)C(=CC[C@@H]4[C@@]5(C)CC[C@H](OC(=O)c6cc(F)c(F)cc6C(=O)NO)C(C)(C)[C@@H]5CC[C@]43C)[C@@H]2C1` [Compound 42, oleanoyl 4,5-difluoro-2-(hydroxycarbamoyl)benzo-ate], for which the “inhibition of GDP/GTP exchange (in words)” value against K-RAS4B^G12D (setting [1]) was “completely inactive”.
`C=C(C)[C@@H]1CC[C@]2(C(=O)OC)CC[C@]3(C)[C@H](CC[C@@H]4[C@@]5(C)CC[C@H](O)C(C)(C)[C@@H]5CC[C@]43C)[C@@H]12` [Compound 10]: the “inhibition of GDP/GTP exchange (in words)” value against K-RAS4B^G12D (setting [1]) is “inactive”.
By IC50 is commonly meant the concentration that inhibits the measured activity by half. High values mean weaker potency, low ones greater potency. In general, solubility refers to how much of the substance goes into solution per volume. Lower therefore signals a poorly soluble substance. `COc1cc(C(=O)O)c(C(=O)O[C@H]2CC[C@]3(C)[C@H]4CC=C5[C@@H]6[C@@H](C)[C@H](C)CC[C@]6(C(=O)O)CC[C@@]5(C)[C@]4(C)CC[C@H]3C2(C)C)cc1OC` [Compound 38]: the concentration for half-maximal inhibition (IC50) against K-RAS4B wild-type is 53.6 ± 7.3 µM; against K-RAS4B^G12D it was 55.6 ± 6.5 µM. Further, the solubility in the data set “Solubility” turned out to be 383 µM (≈ 255 µg/mL).
In the case of `C=C(C)[C@@H]1CC[C@]2(CN)CC[C@]3(C)[C@H](CC[C@@H]4[C@@]5(C)CC[C@H](O)C(C)(C)[C@@H]5CC[C@]43C)[C@@H]12` [Compound 35], at K-RAS4B^G12D, the “inhibition of GDP/GTP exchange (in words)” value is “inactive”.
`C=C(C)[C@@H]1CC[C@]2(C(=O)O)CC[C@]3(C)[C@H](CC[C@@H]4[C@@]5(C)CC[C@H](O)C(C)(C)[C@@H]5CC[C@]43C)[C@@H]12` [Compound 2, betulinic acid]: at K-RAS4B^G12D, the IC50 is above 300 µM.
As for `CC1(C)CC[C@]2(C(=O)O)CC[C@]3(C)C(=CC[C@@H]4[C@@]5(C)CC[C@H](OC(=O)c6cc(F)c(F)cc6C(=O)O)C(C)(C)[C@@H]5CC[C@]43C)[C@@H]2C1` [Compound 43], the IC50 against K-RAS4B wild-type came to 1.5 ± 0.08 µM; at K-RAS4B^G12D, 2.22 ± 0.29 µM; at K-RAS4B G12V it was 2.71 ± 0.39 µM. The solubility in “Solubility” is 394 µM (≈ 252 µg/mL).
As to `C=C(C)[C@@H]1CC[C@]2(C(=O)O)CC[C@]3(C)[C@H](CC[C@@H]4[C@@]5(C)CC[C@H](OC(=O)c6ccccc6)C(C)(C)[C@@H]5CC[C@]43C)[C@@H]12` [Compound 9], the “inhibition of GDP/GTP exchange (in words)” value against K-RAS4B^G12D (setting [1]) is “inactive”.
On to `C[C@H]1[C@H](C)CC[C@]2(C(=O)O)CC[C@]3(C)C(=CC[C@@H]4[C@@]5(C)CC[C@H](O)C(C)(C)[C@@H]5CC[C@]43C)[C@H]12` [Compound 4, Ursolic acid], for which the concentration for half-maximal inhibition (IC50) against K-RAS4B^G12D was above 300 µM.
As for `CC1(C)CC[C@]2(C(=O)O)CC[C@]3(C)C(=CC[C@@H]4[C@@]5(C)CC[C@H](OC(=O)c6ccsc6C(=O)O)C(C)(C)[C@@H]5CC[C@]43C)[C@@H]2C1` [Compound 46], the IC50 is 4.15 ± 1.32 µM against K-RAS4B wild-type, 3.67 ± 0.35 µM against K-RAS4B^G12D and 8.12 ± 1.24 µM on K-RAS4B G12V. Besides, in “Solubility”, the concentration in solution (solubility) came to 421 µM (≈ 257 µg/mL).
In the case of `CC(C=O)[C@@H]1CC[C@]2(C(=O)O)CC[C@]3(C)[C@H](CC[C@@H]4[C@@]5(C)CC[C@H](OC(=O)c6ccccc6C(=O)O)C(C)(C)[C@@H]5CC[C@]43C)[C@@H]12` (some centres unmarked) [Compound 14], the values for the half-maximal inhibitory concentration (IC50) against K-RAS4B wild-type, at K-RAS4B^G12D and at K-RAS4B G12V were 37.3 ± 19.1 µM, 48.5 ± 12.7 µM and 51.1 ± 6.2 µM, respectively. Besides, in “Solubility”, the solubility amounted to 447 µM (≈ 278 µg/mL). Also, in the data set “Solubility”, the “solubility (in words)” value is “well soluble”.
`C#Cc1c(F)ccc2cc(O)cc(-c3ncc4c(N5CC6CCC(C5)N6)nc(OC[C@@]56CCCN5C[C@H](F)C6)nc4c3F)c12` [Compound 53, MRTX1133, reference compound] showed a solubility in the data set “Solubility” of 322 µM (≈ 193 µg/mL).
On to `CC1(C)CC[C@]2(C(=O)O)CC[C@]3(C)C(=CC[C@@H]4[C@@]5(C)CC[C@H](OC(=O)c6c(F)ccc(F)c6C(=O)O)C(C)(C)[C@@H]5CC[C@]43C)[C@@H]2C1` [Compound 44], for which the IC50 against K-RAS4B wild-type amounted to 1.33 ± 0.24 µM; against K-RAS4B^G12D, 2.88 ± 0.89 µM; against K-RAS4B G12V, 2.51 ± 0.24 µM. Also, the solubility in “Solubility” worked out at 424 µM (≈ 272 µg/mL).
As to `CC1(C)CCC23CCC4(C)C5(C)CCC6C(C)(C)C(OC(=O)c7cc(F)c(F)cc7C(=O)O)CCC6(C)C5CC(O)C4(OC2=O)C3C1` (centres unmarked) [Compound 51], the IC50 against K-RAS4B wild-type stood at 7.18 ± 0.68 µM; against K-RAS4B^G12D it was 26.5 ± 5.9 µM; against K-RAS4B G12V, 8.57 ± 1.09 µM. In the data set “Solubility”, this compound registered a solubility of 99 µM (≈ 65 µg/mL).
On K-RAS4B^G12D, `COC(=O)[C@]12CC[C@@H](C(C)C(=O)O)[C@@H]1[C@H]1CC[C@@H]3[C@@]4(C)CC[C@H](OC(C)=O)C(C)(C)[C@@H]4CC[C@@]3(C)[C@]1(C)CC2` (some centres unmarked) [Compound 27] displayed an IC50 of 13.8 ± 4.2 µM.
With `C=C(C)[C@@H]1CC[C@]2(C(=O)O)CC[C@]3(C)[C@H](CC[C@@H]4[C@@]5(C)CC[C@H](OC(C)=O)C(C)(C)[C@@H]5CC[C@]43C)[C@@H]12` [Compound 8], the “inhibition of GDP/GTP exchange (in words)” value at K-RAS4B^G12D (setting [1]) was “inactive”.
Turning to `C=C(C)[C@@H]1CC[C@]2(C(=O)NCC(=O)OCC)CC[C@]3(C)[C@H](CC[C@@H]4[C@@]5(C)CC[C@H](O)C(C)(C)[C@@H]5CC[C@]43C)[C@@H]12` [Compound 21], the “inhibition of GDP/GTP exchange (in words)” value against K-RAS4B^G12D is “inactive”.
As for `C=C(C)[C@@H]1CC[C@]2(C(=O)O)CC[C@]3(C)[C@H](CC[C@@H]4[C@@]5(C)CCC(=O)C(C)(C)[C@@H]5CC[C@]43C)[C@@H]12` [Compound 20, betulonic acid], the “inhibition of GDP/GTP exchange (in words)” value against K-RAS4B^G12D (setting [1]) is “inactive”.
Turning to `C=C(C)[C@@H]1CC[C@]2(C(=O)On3nnc4cccnc43)CC[C@]3(C)[C@H](CC[C@@H]4[C@@]5(C)CC[C@H](O)C(C)(C)[C@@H]5CC[C@]43C)[C@@H]12` [Compound 13], the “inhibition of GDP/GTP exchange (in words)” value against K-RAS4B^G12D (setting [1]) was “inactive”.
In the case of `CC1(C)CC[C@]2(C(=O)NCCN)CC[C@]3(C)C(=CC[C@@H]4[C@@]5(C)CC[C@H](O)C(C)(C)[C@@H]5CC[C@]43C)[C@@H]2C1` [Compound 40], on K-RAS4B^G12D (setting [1]), the “inhibition of GDP/GTP exchange (in words)” value is “inactive”.
For `C=C(C)[C@@H]1CC[C@]2(C(=O)NCC(=O)O)CC[C@]3(C)[C@H](CC[C@@H]4[C@@]5(C)CC[C@H](O)C(C)(C)[C@@H]5CC[C@]43C)[C@@H]12` [Compound 12], the “inhibition of GDP/GTP exchange (in words)” value against K-RAS4B^G12D (setting [1]) was “inactive”.
With `COC(=O)c1ccccc1C(=O)O[C@H]1CC[C@]2(C)[C@H]3CC=C4[C@@H]5CC(C)(C)CC[C@]5(C(=O)O)CC[C@@]4(C)[C@]3(C)CC[C@H]2C1(C)C` [Compound 48], the “inhibition of GDP/GTP exchange (in words)” value at K-RAS4B^G12D (setting [1]) was “completely inactive”.
As for `CC1(C)CC[C@]2(C(=O)O)CC[C@]3(C)C(=CC[C@@H]4[C@@]5(C)CC[C@H](OC(=O)c6sccc6C(=O)O)C(C)(C)[C@@H]5CC[C@]43C)[C@@H]2C1` [Compound 45], the IC50 against K-RAS4B wild-type was found to be 1.52 ± 0.5 µM; at K-RAS4B^G12D it was 3.06 ± 0.79 µM; on K-RAS4B G12V it was 5.62 ± 0.93 µM. In “Solubility”, this compound came in with a solubility of 390 µM (≈ 238 µg/mL).
For `C=C(C)[C@@H]1CC[C@]2(C(=O)O)CC[C@]3(C)[C@H](CC[C@@H]4[C@@]5(C)CC[C@H](OC(=O)c6cc7ccccc7cc6C(=O)O)C(C)(C)[C@@H]5CC[C@]43C)[C@@H]12` [Compound 22], the “inhibition of GDP/GTP exchange (in words)” value on K-RAS4B^G12D was “loss of GDP/GTP exchange inhibition”.
For `CC1(C)CC[C@]2(C(=O)Nc3nnn[nH]3)CC[C@]3(C)C(=CC[C@@H]4[C@@]5(C)CC[C@H](O)C(C)(C)[C@@H]5CC[C@]43C)[C@@H]2C1` [Compound 39], the values for the IC50 on K-RAS4B wild-type, against K-RAS4B^G12D and at K-RAS4B G12V were 12.8 ± 2.9 µM, 27.8 ± 2.6 µM and 9.18 ± 0.99 µM, respectively.
For `Cn1cnc(Cn2ccc3ccc(CNCc4[nH]c5ccccc5c4C4NC(=O)c5ccc(O)cc54)cc32)c1` (centres unmarked) [Compound 54, BI2852, reference compound], the IC50 was found to be 13.4 ± 2.1 µM at K-RAS4B wild-type, 13.7 ± 5.1 µM against K-RAS4B^G12D and 10.9 ± 0.6 µM against K-RAS4B G12V. Moreover, the solubility in the data set “Solubility” turned out to be 114 µM (≈ 58.9 µg/mL).
`C=C(C)[C@@H]1CC[C@]2(COC(=O)CCC(=O)O)CC[C@]3(C)[C@H](CC[C@@H]4[C@@]5(C)CC[C@H](O)C(C)(C)[C@@H]5CC[C@]43C)[C@@H]12` [Compound 31]: the IC50 against K-RAS4B wild-type was determined as 25.6 ± 4.3 µM; against K-RAS4B^G12D, 10.4 ± 0.8 µM; against K-RAS4B G12V, 12.7 ± 5.5 µM.
For the compound `CC1(C)CCC23CCC4(C)C5(C)CCC6C(C)(C)C(OC(=O)c7c(F)ccc(F)c7C(=O)O)CCC6(C)C5CC(O)C4(OC2=O)C3C1` (centres unmarked) [Compound 52], the IC50 against K-RAS4B wild-type was 10.6 ± 2.9 µM; against K-RAS4B^G12D, 27.1 ± 4.2 µM; against K-RAS4B G12V it was 8.7 ± 0.59 µM. This compound also gave a solubility in “Solubility” of 320 µM (≈ 210 µg/mL).
Regarding `C=C(C)[C@@H]1CC[C@]2(C(=O)NCCN)CC[C@]3(C)[C@H](CC[C@@H]4[C@@]5(C)CC[C@H](O)C(C)(C)[C@@H]5CC[C@]43C)[C@@H]12` [Compound 17], on K-RAS4B^G12D (setting [1]), the “inhibition of GDP/GTP exchange (in words)” value is “inactive”.
Regarding `CC1(C)CC[C@]2(C(=O)NO)CC[C@]3(C)C(=CC[C@@H]4[C@@]5(C)CC[C@H](OC(=O)c6cc(F)c(F)cc6C(=O)O)C(C)(C)[C@@H]5CC[C@]43C)[C@@H]2C1` [Compound 41], the IC50 on K-RAS4B wild-type amounted to 4.68 µM; against K-RAS4B^G12D it was 7.61 ± 0.7 µM; against K-RAS4B G12V, 5.47 µM.
